Experiment [1] deals with Casein kinase II subunit alpha' (Homo sapiens) (UniProt P19784). Kind of experiment: Selectivity interaction (KinomeScan (DiscoverX)) EUB0000666a CSNK2A2. The note with it: at 10 µM.
In experiment [2] the target is T1, Serine/threonine-protein kinase DCLK2 (Homo sapiens) (UniProt Q8N568).
T1 sequence (whole entry): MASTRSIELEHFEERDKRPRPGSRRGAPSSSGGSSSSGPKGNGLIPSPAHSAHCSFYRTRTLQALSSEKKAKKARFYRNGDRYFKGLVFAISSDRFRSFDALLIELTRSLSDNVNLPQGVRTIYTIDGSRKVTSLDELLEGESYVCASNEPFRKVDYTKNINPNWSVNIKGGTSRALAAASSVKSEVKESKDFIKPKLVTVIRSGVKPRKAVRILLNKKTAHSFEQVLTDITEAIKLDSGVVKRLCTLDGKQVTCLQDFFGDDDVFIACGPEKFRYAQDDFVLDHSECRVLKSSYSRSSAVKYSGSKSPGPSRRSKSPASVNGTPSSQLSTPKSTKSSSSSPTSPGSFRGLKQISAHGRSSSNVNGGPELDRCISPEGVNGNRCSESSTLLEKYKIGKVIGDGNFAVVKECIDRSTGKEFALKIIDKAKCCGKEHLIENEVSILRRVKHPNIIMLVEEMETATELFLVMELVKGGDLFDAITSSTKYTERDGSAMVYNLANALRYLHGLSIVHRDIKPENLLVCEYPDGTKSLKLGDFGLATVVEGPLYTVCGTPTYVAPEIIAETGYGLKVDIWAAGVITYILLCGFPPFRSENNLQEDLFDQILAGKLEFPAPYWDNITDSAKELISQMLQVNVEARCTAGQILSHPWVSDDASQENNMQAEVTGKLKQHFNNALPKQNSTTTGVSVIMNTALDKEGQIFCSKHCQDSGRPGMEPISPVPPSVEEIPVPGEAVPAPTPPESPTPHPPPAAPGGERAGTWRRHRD
Kind of experiment: Selectivity interaction (SelectScreen profiling (Invitrogen)) EUB0000607a DCLK2. The settings on record: at 2 µM.

Experiment [3] addresses T2, Serine/threonine-protein kinase BRSK1 (Homo sapiens) (UniProt Q8TDC3).
T2 sequence (whole entry): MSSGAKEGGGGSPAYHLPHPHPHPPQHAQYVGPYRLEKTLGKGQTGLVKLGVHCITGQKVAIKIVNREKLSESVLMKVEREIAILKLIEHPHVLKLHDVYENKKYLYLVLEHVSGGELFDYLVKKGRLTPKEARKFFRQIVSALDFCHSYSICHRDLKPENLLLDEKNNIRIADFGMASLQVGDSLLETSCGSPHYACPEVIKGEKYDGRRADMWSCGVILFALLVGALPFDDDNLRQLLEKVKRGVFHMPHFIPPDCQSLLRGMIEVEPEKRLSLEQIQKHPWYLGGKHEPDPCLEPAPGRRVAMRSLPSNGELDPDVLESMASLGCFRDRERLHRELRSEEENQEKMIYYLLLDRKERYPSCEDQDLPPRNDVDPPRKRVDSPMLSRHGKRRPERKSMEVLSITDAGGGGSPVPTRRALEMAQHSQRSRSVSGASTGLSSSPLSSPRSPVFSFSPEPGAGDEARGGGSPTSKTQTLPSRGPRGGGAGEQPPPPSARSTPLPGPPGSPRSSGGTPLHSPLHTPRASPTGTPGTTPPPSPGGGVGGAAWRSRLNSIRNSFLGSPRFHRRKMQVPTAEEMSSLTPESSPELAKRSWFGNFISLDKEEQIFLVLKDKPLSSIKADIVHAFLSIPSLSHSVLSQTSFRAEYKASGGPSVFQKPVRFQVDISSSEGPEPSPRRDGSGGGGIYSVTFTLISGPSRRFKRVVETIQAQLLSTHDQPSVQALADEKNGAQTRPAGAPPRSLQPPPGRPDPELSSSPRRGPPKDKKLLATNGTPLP
Kind of experiment: Selectivity interaction (ProQinase) EUB0000171b BRSK1.

Experiment [4] deals with T3, Serine/threonine-protein kinase TAO2 (Homo sapiens) (UniProt Q9UL54).
T3 sequence (whole entry): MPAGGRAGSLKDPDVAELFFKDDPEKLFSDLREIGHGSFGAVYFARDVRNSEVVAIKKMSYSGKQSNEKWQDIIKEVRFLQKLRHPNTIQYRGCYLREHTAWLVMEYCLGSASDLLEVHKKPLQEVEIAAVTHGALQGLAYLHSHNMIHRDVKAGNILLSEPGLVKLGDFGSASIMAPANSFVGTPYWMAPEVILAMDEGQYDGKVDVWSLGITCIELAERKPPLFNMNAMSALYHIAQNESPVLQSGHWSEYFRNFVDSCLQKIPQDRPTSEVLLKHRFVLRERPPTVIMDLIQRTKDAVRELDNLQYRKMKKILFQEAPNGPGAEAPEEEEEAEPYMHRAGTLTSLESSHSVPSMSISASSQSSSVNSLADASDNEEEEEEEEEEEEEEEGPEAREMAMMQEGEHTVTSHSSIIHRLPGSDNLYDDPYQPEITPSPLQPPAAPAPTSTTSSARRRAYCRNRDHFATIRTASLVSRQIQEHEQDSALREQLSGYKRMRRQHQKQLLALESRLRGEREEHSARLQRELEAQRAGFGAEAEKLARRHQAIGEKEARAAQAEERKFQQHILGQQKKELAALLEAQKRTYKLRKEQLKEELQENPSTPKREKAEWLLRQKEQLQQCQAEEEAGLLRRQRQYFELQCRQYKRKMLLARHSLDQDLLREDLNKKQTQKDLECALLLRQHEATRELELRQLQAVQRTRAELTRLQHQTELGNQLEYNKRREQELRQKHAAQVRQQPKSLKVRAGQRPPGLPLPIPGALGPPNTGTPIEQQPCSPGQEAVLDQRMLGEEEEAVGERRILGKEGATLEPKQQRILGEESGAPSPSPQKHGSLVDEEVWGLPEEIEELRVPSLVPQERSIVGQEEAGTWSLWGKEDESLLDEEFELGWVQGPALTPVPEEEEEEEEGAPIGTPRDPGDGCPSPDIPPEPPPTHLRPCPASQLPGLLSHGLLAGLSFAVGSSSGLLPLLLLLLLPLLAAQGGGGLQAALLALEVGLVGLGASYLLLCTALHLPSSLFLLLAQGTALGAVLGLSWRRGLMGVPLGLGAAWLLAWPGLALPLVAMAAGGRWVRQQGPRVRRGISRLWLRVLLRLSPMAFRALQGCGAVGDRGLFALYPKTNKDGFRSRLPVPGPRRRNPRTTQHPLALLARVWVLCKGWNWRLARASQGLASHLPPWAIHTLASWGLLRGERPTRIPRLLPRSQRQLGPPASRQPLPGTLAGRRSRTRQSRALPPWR
Put plainly: Selectivity interaction (KinomeScan (DiscoverX)) EUB0000618a TAOK2. The settings on record: at 10 µM.

Chain of Casein kinase II subunit alpha' (Homo sapiens) (P19784 whole entry, looked up): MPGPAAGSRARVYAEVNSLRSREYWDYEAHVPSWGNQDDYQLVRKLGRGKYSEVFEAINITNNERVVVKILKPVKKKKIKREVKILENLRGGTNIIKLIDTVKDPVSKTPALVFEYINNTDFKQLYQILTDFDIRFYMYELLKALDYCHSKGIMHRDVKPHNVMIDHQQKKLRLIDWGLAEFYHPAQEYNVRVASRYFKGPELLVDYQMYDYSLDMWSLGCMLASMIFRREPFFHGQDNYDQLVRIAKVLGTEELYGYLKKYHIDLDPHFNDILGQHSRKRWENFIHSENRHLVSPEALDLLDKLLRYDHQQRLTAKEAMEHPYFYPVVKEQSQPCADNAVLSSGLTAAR

In experiment [1], `O=C(NOC[C@H](O)CO)c1ccc(F)c(F)c1Nc1ccc(I)cc1F` registered a % of control of 100%.
On to `CNC(=O)Nc1ccc(-c2nc(N3CC4CCC(C3)O4)c3cnn(C4CCC5(CC4)OCCO5)c3n2)cc1`, for which, in experiment [2], the % of inhibition is 2%.
With `C=CC(=O)Nc1cccc(C(=O)Nc2ccc(Nc3cc(-c4[nH]c(SC)nc4C)ccn3)cc2)c1`, the figures for the % of control in experiment [3] (at 1 µM) and in experiment [3] (at 5 µM) were 107% and 95%, respectively.
Turning to `O[C@H]1CC[C@H](Nc2ncc3nc(Nc4c(F)cc(F)cc4F)n([C@H]4CCOC4)c3n2)CC1`, the % of control in experiment [4] was 93%.
